The target in test [1] is Phosphatidylinositol 4,5-bisphosphate 3-kinase catalytic subunit beta isoform (Homo sapiens) (UniProt P42338). The test is described as follows: Selectivity interaction (ActivX KiNativ screen (ex vivo kinase selectivity in human PBMCs)) EUB0001619a PIK3CB. The test is classed as cell-based. To be noted: PBMC, at 1 µM.
The target of test [2] is T1, Serine/threonine-protein kinase NLK (Homo sapiens) (UniProt Q9UBE8).
T1 sequence (whole entry): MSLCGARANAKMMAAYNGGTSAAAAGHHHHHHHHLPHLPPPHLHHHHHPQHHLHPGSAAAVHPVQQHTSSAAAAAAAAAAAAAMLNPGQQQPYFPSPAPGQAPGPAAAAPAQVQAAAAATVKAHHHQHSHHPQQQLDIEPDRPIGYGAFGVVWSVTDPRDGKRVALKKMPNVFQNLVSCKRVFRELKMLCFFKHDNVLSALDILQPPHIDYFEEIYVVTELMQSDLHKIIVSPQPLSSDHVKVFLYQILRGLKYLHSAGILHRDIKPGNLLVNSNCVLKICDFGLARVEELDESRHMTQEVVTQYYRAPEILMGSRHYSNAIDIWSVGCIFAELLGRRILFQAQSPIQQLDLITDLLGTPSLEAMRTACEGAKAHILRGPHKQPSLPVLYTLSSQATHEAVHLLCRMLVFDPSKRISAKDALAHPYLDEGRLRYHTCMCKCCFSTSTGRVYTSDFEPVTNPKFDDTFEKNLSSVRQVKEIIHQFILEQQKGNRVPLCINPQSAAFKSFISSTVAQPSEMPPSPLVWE
The test is described as follows: Selectivity interaction (KinomeScan (DiscoverX)) EUB0000695a NLK. To be noted: at 100 nM.

The target in test [3] is Cyclin-dependent kinase-like 3 (Homo sapiens) (UniProt Q8IVW4). To be noted: at 10 µM.
For test [4], the target named is T2, MAP kinase-activated protein kinase 5 (Homo sapiens) (UniProt Q8IW41).
T2 sequence (whole entry): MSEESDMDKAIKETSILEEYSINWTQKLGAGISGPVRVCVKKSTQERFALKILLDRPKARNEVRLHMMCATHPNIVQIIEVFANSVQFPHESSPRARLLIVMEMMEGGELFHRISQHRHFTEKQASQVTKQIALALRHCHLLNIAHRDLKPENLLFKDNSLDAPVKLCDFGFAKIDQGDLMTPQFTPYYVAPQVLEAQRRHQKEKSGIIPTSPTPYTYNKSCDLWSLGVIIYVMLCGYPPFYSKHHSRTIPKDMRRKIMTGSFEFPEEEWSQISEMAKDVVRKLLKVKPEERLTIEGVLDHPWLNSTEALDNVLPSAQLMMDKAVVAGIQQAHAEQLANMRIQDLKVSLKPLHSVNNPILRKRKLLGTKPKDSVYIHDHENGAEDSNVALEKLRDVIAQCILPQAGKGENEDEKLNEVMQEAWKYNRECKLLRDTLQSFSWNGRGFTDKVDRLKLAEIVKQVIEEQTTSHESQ
The test is described as follows: Selectivity interaction (KinaseProfiler screening (Millipore)) EUB0000601a MAPKAPK5. The conditions noted are these: at 3 µM.

In test [5] the target is T3, Eukaryotic elongation factor 2 kinase (Homo sapiens) (UniProt O00418).
T3 sequence (whole entry): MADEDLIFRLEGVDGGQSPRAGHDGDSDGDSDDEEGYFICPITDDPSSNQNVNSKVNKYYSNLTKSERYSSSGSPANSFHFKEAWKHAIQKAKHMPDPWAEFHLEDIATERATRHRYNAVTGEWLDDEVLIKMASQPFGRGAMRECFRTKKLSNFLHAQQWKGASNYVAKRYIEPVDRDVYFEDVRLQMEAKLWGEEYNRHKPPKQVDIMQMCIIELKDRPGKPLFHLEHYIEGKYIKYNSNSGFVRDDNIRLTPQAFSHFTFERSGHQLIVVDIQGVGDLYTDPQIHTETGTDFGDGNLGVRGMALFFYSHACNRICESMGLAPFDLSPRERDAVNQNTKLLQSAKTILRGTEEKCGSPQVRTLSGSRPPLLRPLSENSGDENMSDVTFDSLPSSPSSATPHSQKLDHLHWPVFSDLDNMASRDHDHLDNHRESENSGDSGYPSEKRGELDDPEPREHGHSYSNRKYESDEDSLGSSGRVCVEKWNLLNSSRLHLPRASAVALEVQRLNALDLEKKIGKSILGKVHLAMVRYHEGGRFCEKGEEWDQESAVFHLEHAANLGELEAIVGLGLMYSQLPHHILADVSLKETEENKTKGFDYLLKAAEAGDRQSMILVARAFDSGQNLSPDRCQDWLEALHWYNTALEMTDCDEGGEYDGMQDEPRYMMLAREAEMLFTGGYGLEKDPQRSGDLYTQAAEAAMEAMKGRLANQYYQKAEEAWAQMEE
The test is described as follows: Selectivity interaction (Upstate Kinase Profiler service (Millipore)) EUB0000056c EEF2K. The conditions noted are these: at 1 µM.

For test [6], the system named is Fibroblast growth factor receptor 3 (Homo sapiens), P22607 [G697C]. As to the kind of experiment: (§1) Selectivity interaction (KinomeScan (DiscoverX)) EUB0001079a FGFR3. To be noted: at 1 µM.
In test [7] the target is Fibroblast growth factor receptor 3 (Homo sapiens, UniProt P22607). The test is described as §1. To be noted: at 1 µM.
Chain of Fibroblast growth factor receptor 3 (P22607 23-806 limits assumed): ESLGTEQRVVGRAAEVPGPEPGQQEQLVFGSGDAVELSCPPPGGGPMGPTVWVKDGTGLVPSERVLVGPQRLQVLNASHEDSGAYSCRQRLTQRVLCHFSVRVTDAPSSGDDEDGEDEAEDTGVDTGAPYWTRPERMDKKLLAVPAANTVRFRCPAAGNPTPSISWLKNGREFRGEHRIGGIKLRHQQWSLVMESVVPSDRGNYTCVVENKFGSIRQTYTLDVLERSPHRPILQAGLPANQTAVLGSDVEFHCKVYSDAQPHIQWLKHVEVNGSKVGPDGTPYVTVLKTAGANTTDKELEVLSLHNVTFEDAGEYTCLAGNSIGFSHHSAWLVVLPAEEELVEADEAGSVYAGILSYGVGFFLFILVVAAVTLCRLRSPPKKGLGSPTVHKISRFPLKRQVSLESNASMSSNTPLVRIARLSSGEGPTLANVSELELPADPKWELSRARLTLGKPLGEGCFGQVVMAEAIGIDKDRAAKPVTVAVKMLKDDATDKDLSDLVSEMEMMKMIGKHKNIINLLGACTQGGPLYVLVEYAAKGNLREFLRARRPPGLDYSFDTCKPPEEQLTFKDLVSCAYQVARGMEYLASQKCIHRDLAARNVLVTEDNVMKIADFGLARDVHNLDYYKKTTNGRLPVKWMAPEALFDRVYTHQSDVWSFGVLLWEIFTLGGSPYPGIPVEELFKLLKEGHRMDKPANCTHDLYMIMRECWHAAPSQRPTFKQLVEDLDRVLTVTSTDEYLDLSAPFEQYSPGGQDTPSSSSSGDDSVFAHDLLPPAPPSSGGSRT

Chain of Cyclin-dependent kinase-like 3 (Homo sapiens) (Q8IVW4 whole entry, looked up): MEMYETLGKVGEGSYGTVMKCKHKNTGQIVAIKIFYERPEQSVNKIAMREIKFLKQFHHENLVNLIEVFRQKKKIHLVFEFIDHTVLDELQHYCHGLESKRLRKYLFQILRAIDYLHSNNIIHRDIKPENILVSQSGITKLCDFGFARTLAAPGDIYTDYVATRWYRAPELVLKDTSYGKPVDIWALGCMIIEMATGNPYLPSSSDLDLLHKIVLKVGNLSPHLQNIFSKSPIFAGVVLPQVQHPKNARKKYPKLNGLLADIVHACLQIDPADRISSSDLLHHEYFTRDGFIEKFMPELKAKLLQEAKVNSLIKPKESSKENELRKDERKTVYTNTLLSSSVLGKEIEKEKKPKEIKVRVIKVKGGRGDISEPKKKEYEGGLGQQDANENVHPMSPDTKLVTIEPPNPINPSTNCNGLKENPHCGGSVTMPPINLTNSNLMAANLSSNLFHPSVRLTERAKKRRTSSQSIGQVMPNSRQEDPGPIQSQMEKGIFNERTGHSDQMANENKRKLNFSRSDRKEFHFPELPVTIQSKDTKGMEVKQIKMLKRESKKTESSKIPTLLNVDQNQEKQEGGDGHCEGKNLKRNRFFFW
Chain of Fibroblast growth factor receptor 3 (Homo sapiens), P22607 [G697C] (P22607 whole entry G697C): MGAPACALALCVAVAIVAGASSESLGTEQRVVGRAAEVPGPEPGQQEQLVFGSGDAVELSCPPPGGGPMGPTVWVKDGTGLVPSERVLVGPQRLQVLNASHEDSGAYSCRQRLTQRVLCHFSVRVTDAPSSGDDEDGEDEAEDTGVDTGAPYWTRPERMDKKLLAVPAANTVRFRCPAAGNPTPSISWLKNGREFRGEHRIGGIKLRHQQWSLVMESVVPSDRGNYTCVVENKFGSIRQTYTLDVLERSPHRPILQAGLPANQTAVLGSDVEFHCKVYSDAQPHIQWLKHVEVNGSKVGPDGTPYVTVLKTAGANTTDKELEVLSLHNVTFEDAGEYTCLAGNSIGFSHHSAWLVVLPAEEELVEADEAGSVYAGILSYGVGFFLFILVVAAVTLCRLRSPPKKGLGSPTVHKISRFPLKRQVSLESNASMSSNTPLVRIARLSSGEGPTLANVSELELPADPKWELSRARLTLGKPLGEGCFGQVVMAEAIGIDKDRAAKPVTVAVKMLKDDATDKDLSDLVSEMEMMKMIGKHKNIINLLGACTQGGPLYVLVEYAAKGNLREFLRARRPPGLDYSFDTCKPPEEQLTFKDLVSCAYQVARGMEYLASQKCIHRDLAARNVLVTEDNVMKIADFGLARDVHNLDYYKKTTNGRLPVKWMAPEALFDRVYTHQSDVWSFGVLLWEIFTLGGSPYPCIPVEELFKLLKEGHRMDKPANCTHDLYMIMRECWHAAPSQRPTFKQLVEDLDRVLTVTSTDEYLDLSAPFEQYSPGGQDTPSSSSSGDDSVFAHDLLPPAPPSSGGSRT
Chain of Phosphatidylinositol 4,5-bisphosphate 3-kinase catalytic subunit beta isoform (Homo sapiens) (P42338 whole entry, looked up, canonical isoform): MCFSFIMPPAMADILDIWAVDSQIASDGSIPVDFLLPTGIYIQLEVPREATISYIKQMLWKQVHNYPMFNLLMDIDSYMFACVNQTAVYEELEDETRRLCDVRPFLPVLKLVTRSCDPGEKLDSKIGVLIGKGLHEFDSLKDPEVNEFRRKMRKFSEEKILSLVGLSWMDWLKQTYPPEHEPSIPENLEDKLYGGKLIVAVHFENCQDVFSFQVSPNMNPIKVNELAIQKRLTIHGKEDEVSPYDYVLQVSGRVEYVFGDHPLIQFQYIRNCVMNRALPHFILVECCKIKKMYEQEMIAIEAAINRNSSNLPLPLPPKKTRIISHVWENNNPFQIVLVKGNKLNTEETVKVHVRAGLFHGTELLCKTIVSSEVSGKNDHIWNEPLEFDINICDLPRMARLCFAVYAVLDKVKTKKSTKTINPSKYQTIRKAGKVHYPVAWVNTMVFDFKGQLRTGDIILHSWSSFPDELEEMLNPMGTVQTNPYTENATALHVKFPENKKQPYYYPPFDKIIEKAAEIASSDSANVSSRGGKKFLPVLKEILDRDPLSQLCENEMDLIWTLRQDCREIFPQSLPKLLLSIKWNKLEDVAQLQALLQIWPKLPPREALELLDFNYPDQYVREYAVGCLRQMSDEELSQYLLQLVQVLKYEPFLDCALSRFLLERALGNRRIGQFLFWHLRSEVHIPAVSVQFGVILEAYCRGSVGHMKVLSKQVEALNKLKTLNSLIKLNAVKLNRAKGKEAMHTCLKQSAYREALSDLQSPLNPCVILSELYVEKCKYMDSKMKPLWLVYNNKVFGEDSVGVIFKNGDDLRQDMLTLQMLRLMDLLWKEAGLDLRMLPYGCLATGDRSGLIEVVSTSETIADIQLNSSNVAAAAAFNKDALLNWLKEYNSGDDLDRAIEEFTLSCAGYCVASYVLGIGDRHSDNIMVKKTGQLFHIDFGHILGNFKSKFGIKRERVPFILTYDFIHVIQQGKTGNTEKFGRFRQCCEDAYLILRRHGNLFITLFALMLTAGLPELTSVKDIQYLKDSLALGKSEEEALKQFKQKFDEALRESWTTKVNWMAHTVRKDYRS

Regarding `N#Cc1cccc(-c2c[nH]c3ncnc(N4CCOCC4)c23)c1`, the % of inhibition in test [1] is -1%.
Take `Cc1cc(F)c(C(=O)Nc2cccc(-c3nncn3C(C)C)n2)cc1-n1cnc(C2CC2)c1`: the % of control in test [2] is 96%.
For `Cc1cc([C@@H](C)Nc2ccccc2C(=O)O)c2nc(N3CCOCC3)cc(=O)n2c1` [AZD-6482], the % of control in test [3] amounted to 90%.
For the compound `CCc1cc(Nc2nccc(-c3c(-c4ccc(OC)c(C(=O)Nc5c(F)cccc5F)c4)nc4ccccn34)n2)c(OC)cc1N1CCC(N2CCN(S(C)(=O)=O)CC2)CC1`, the % of inhibition in test [4] was 35%.
Regarding `Cc1ccc(-c2ccc3c(ccc4sc5c(c43)NC[C@@H](C)NC5=O)n2)cn1`, the % of inhibition in test [5] is -6%.
`Nc1cnc(N2CCc3cc(S(=O)(=O)Nc4c(F)cc(Cl)cc4F)cc(N4CCCC4=O)c32)nc1` [TP-020n]: the % of control in test [6] turned out to be 89%; in test [7], 100%.

Source of the values: ChEMBL document CHEMBL5465560, “Selectivity Literature for EUbOPEN Chemogenomic Library” (2024).
